These results are taken from US12286429B2, “5-oxo-1,2,3,5,8,8a-hexahydroindolizine-3-carboxamide derivatives useful as a factor XIa inhibitors” (Janssen Pharmaceutica NV, priority 2021, dated 2025).

One assay addresses Factor XIa (Homo sapiens, UniProt P03951). In words: Factor XIa inhibition assay utilizing a fluorophore-quencher pair peptide substrate (FLINT). It is filed as biochemical. The settings on record: 11-point, 3-fold serial dilution, top 100 nM; 30 min preincubation; 15 μM 5Fam-KLTRAETV-K5Tamra substrate; kinetic reads over 30 min; read-out: FXIa Inhibition IC50. A digest of the protocol: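 FXIa ([…]) preincubated 30 min with compound (11-point, 3-fold, top 100 nM, 2% DMSO) in Tris pH 7.5, NaCl, CaCl2, BSA, CHAPS; 15 μM 5Fam-KLTRAETV-K5Tamra substrate then added. Fluorescence (485/520 nm) read kinetically over 30 min at room temperature; IC50 by 4-parameter fit.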

The next assay deals with human plasma kallikrein (Homo sapiens, UniProt P03952). In words: Kallikrein inhibition assay utilizing a quenched AMC peptide substrate (FLINT). The format is biochemical. The settings on record: 11-point, 3-fold serial dilution, top 1 μM; 30 min preincubation; 2 nM kallikrein; 50 μM Z-Gly-Pro-Arg-AMC; kinetic reads over 30 min. A digest of the protocol: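 Human plasma kallikrein (2 nM final) was pre-incubated 30 min at room temperature with compound (11-point 3-fold series, top 1 μM, 2% DMSO) in Tris pH 7.5, NaCl, CaCl2, BSA, CHAPS buffer. Reaction started with 50 μM Z-Gly-Pro-Arg-AMC (KM 40 μM), and fluorescence (340/440 nm) was read kinetically over 30 min. IC50 came from a 4-parameter logistic fit.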
Sequence of human plasma kallikrein (P03952 391-638 limits assumed): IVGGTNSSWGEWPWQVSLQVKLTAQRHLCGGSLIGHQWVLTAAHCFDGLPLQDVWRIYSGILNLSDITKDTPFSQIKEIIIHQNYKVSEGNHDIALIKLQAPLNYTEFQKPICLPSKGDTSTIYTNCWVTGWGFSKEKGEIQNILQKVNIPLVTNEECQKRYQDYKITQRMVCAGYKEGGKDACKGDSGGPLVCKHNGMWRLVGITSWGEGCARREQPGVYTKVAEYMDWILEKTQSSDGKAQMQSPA
Sequence of human plasma kallikrein (P03952 20-390 partner limits assumed): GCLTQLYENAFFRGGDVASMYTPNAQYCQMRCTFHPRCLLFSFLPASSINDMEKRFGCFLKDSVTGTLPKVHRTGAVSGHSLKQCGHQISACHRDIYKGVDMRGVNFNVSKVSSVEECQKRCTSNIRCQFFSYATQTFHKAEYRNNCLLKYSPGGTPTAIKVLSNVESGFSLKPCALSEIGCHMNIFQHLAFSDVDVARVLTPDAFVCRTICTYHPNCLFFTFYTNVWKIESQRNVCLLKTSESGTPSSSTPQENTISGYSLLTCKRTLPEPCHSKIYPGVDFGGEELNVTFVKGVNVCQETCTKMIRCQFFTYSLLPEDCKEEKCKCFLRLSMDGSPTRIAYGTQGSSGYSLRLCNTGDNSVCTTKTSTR

Sequence of Factor XIa (P03951 388-625 limits assumed): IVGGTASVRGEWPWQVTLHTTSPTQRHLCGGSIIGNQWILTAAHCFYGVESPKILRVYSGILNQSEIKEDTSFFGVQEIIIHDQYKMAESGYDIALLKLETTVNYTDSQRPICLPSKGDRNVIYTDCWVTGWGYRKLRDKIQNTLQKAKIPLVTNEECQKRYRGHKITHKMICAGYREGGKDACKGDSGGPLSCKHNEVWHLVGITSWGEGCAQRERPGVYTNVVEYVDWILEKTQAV
Sequence of Factor XIa (P03951 19-387 partner limits assumed): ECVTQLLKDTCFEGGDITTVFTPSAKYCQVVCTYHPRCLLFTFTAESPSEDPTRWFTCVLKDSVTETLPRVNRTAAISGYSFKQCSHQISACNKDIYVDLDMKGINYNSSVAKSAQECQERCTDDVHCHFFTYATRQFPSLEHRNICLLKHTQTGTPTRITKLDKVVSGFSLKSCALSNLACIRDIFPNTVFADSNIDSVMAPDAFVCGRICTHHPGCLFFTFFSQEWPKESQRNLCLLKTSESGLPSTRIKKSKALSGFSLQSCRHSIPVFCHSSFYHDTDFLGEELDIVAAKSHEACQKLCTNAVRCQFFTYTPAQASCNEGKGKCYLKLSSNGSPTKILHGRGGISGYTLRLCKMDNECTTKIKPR

Broadly, the IC50 is the concentration that inhibits the measured activity by half. Regarding `O=C(Nc1ccc2[nH]c(=O)cc(O)c2c1)[C@@H]1CCC2CC(c3c(-n4cnnn4)ccc(Cl)c3F)=CC(=O)N21` (mixture of isomers) [ID No. 64, (3S)-7-[3-Chloro-2-fluoro-6-(tetrazol-1-yl)phenyl]-N-(4-hydroxy-2-oxo-1H-quinolin-6-yl)-5-oxo-2,3,8,8a-tetrahydro-1H-indolizine-3-carboxamide], the values for the IC50 at Factor XIa and at human plasma kallikrein were 3 nM and 9.5 nM, respectively.

With `O=C(Nc1ccc(-c2cnn[nH]2)cc1)[C@@H]1CCC2CC(c3c(-n4cnnn4)ccc(Cl)c3F)=CC(=O)N21` (mixture of isomers) [ID No. 68, (3S)-7-[3-Chloro-2-fluoro-6-(tetrazol-1-yl)phenyl]-5-oxo-N-[4-(1H-triazol-5-yl)phenyl]-2,3,8,8a-tetrahydro-1H-indolizine-3-carboxamide], the IC50 on Factor XIa stood at 1.7 nM; against human plasma kallikrein, 47.1 nM.

For `O=C(Nc1ccc(-c2nc[nH]n2)cc1)[C@@H]1CCC2CC(c3c(-n4cnnn4)ccc(Cl)c3F)=CC(=O)N21` (mixture of isomers) [ID No. 69, (3S)-7-[3-Chloro-2-fluoro-6-(tetrazol-1-yl)phenyl]-5-oxo-N-[4-(1H-1,2,4-triazol-3-yl)phenyl]-2,3,8,8a-tetrahydro-1H-indolizine-3-carboxamide], the figures for the 50% inhibitory concentration (IC50) on Factor XIa and against human plasma kallikrein were 7.3 nM and 52.3 nM, respectively.

For the compound `Cn1nnnc1-c1ccc(NC(=O)[C@@H]2CCC3CC(c4c(-n5cnnn5)ccc(Cl)c4F)=CC(=O)N32)cc1` (mixture of isomers) [ID No. 70, (3S)-7-[3-Chloro-2-fluoro-6-(tetrazol-1-yl)phenyl]-N-[4-(1-methyltetrazol-5-yl)phenyl]-5-oxo-2,3,8,8a-tetrahydro-1H-indolizine-3-carboxamide], the IC50 at Factor XIa turned out to be 84.8 nM; at human plasma kallikrein, 436 nM.

In the case of `Cn1nncc1-c1ccc(NC(=O)[C@@H]2CCC3CC(c4c(-n5cnnn5)ccc(Cl)c4F)=CC(=O)N32)cc1` (mixture of isomers) [ID No. 71, (3S)-7-[3-Chloro-2-fluoro-6-(tetrazol-1-yl)phenyl]-N-[4-(3-methyltriazol-4-yl)phenyl]-5-oxo-2,3,8,8a-tetrahydro-1H-indolizine-3-carboxamide], the IC50 on Factor XIa was 46 nM; at human plasma kallikrein it was 156 nM.

`O=C(Nc1ccc(-c2nnn[nH]2)cc1)[C@@H]1CCC2CC(c3c(-n4cnnn4)ccc(Cl)c3F)=CC(=O)N21` (mixture of isomers) [ID No. 72, (3S)-7-[3-Chloro-2-fluoro-6-(tetrazol-1-yl)phenyl]-5-oxo-N-[4-(1H-tetrazol-5-yl)phenyl]-2,3,8,8a-tetrahydro-1H-indolizine-3-carboxamide]: the results for the half-inhibitory concentration (IC50) on Factor XIa and against human plasma kallikrein were 0.7 nM and 20.4 nM, respectively.

Take `O=C(Nc1ccc(-n2cnnn2)cc1)[C@@H]1CCC2CC(c3c(-n4cnnn4)ccc(Cl)c3F)=CC(=O)N21` (mixture of isomers) [ID No. 73, (3S)-7-[3-Chloro-2-fluoro-6-(tetrazol-1-yl)phenyl]-5-oxo-N-[4-(tetrazol-1-yl)phenyl]-2,3,8,8a-tetrahydro-1H-indolizine-3-carboxamide]: the 50% inhibitory concentration (IC50) stood at 26.3 nM at Factor XIa and 156 nM against human plasma kallikrein.

With `O=C(Nc1ccc(-c2ncc[nH]2)cc1)[C@@H]1CCC2CC(c3c(-n4cnnn4)ccc(Cl)c3F)=CC(=O)N21` (mixture of isomers) [ID No. 74, (3S)-7-[3-Chloro-2-fluoro-6-(tetrazol-1-yl)phenyl]-N-[4-(1H-imidazol-2-yl)phenyl]-5-oxo-2,3,8,8a-tetrahydro-1H-indolizine-3-carboxamide], the concentration for half-maximal inhibition (IC50) on Factor XIa was 2 nM; on human plasma kallikrein it was 40.7 nM.

On to `O=C(Nc1ccc(-c2n[nH]c(=O)o2)cc1)[C@@H]1CCC2CC(c3c(-n4cnnn4)ccc(Cl)c3F)=CC(=O)N21` (mixture of isomers) [ID No. 75, (3S)-7-[3-Chloro-2-fluoro-6-(tetrazol-1-yl)phenyl]-5-oxo-N-[4-(2-oxo-3H-1,3,4-oxadiazol-5-yl)phenyl]-2,3,8,8a-tetrahydro-1H-indolizine-3-carboxamide], for which the figures for the IC50 at Factor XIa and against human plasma kallikrein were 1.8 nM and 11.2 nM, respectively.

`O=C(Nc1ccc(-c2nc(=O)o[nH]2)cc1)[C@@H]1CCC2CC(c3c(-n4cnnn4)ccc(Cl)c3F)=CC(=O)N21` (mixture of isomers) [ID No. 76, (3S)-7-[3-Chloro-2-fluoro-6-(tetrazol-1-yl)phenyl]-5-oxo-N-[4-(5-oxo-2H-1,2,4-oxadiazol-3-yl)phenyl]-2,3,8,8a-tetrahydro-1H-indolizine-3-carboxamide]: the IC50 at Factor XIa amounted to 0.3 nM; against human plasma kallikrein, 22.2 nM.

For `Cn1cnc(-c2ccc(NC(=O)[C@@H]3CCC4CC(c5c(-n6cnnn6)ccc(Cl)c5F)=CC(=O)N43)cc2)n1` (mixture of isomers) [ID No. 77, (3S)-7-[3-Chloro-2-fluoro-6-(tetrazol-1-yl)phenyl]-N-[4-(1-methyl-1,2,4-triazol-3-yl)phenyl]-5-oxo-2,3,8,8a-tetrahydro-1H-indolizine-3-carboxamide], the IC50 at Factor XIa is 8 nM; against human plasma kallikrein it was 63.5 nM.

With `CC1C[C@@H](C(=O)Nc2ccc3ncccc3c2)N2C(=O)C=C(c3c(-n4cnnn4)ccc(Cl)c3F)CC12` (mixture of isomers) [ID No. 82, (3S)-7-[3-Chloro-2-fluoro-6-(tetrazol-1-yl)phenyl]-1-methyl-5-oxo-N-(6-quinolyl)-2,3,8,8a-tetrahydro-1H-indolizine-3-carboxamide], the concentration for half-maximal inhibition (IC50) was 7.9 nM on Factor XIa and 8 nM at human plasma kallikrein.

`CC1C[C@@H](C(=O)Nc2ccc3nn(C)cc3c2)N2C(=O)C=C(c3c(-n4cnnn4)ccc(Cl)c3F)CC12` (mixture of isomers) [ID No. 83, (3S)-7-[3-Chloro-2-fluoro-6-(tetrazol-1-yl)phenyl]-1-methyl-N-(2-methyl-2H-indazol-5-yl)-5-oxo-2,3,8,8a-tetrahydro-1H-indolizine-3-carboxamide]: the IC50 amounted to 17.8 nM on Factor XIa and 27 nM on human plasma kallikrein.

For the compound `CC1C[C@@H](C(=O)Nc2ccc3n[nH]cc3c2)N2C(=O)C=C(c3c(-n4cnnn4)ccc(Cl)c3F)CC12` (mixture of isomers) [ID No. 84, (3S)-7-[3-Chloro-2-fluoro-6-(tetrazol-1-yl)phenyl]-N-(2H-indazol-5-yl)-1-methyl-5-oxo-2,3,8,8a-tetrahydro-1H-indolizine-3-carboxamide], the IC50 was 19.3 nM on Factor XIa and 27.8 nM against human plasma kallikrein.

On to `CC1C[C@@H](C(=O)Nc2ccc3nccnc3c2)N2C(=O)C=C(c3c(-n4cnnn4)ccc(Cl)c3F)CC12` (mixture of isomers) [ID No. 85, (3S)-7-[3-Chloro-2-fluoro-6-(tetrazol-1-yl)phenyl]-1-methyl-5-oxo-N-quinoxalin-6-yl-2,3,8,8a-tetrahydro-1H-indolizine-3-carboxamide], for which the IC50 at Factor XIa was determined as 9.9 nM; on human plasma kallikrein, 12.2 nM.

On to `C[C@@H](O)c1cnc2cc(NC(=O)[C@@H]3CCC4CC(c5c(-n6cnnn6)ccc(Cl)c5F)=CC(=O)N43)ccc2n1` (relative stereo) [ID No. 1, (3S*)-7-(3-chloro-2-fluoro-6-(1H-tetrazol-1-yl)phenyl)-N-(2-((R*)-1-hydroxyethyl)quinoxalin-6-yl)-5-oxo-1,2,3,5,8,8a-hexahydroindolizine-3-carboxamide], for which the IC50 at Factor XIa was determined as 5 nM; against human plasma kallikrein, 9.7 nM.

Regarding `C[C@@H](O)c1cnc2cc(NC(=O)[C@@H]3CCC4CC(c5c(-n6cnnn6)ccc(Cl)c5F)=CC(=O)N43)ccc2n1` (single isomer, unassigned) [ID No. 2], the figures for the IC50 at Factor XIa and against human plasma kallikrein were 6.4 nM and 11.3 nM, respectively.

`COCCn1cc2cc(NC(=O)C3CCC4CC(c5c(-n6cnnn6)ccc(Cl)c5F)=CC(=O)N43)ccc2n1` (single isomer, unassigned) [ID No. 3, (3S*)-7-(3-chloro-2-fluoro-6-(1H-tetrazol-1-yl)phenyl)-N-(2-(2-methoxyethyl)-2H-indazol-5-yl)-5-oxo-1,2,3,5,8,8a-hexahydroindolizine-3-carboxamide]: the IC50 on Factor XIa amounted to 6 nM; against human plasma kallikrein it was 35.6 nM.

On to `COCCNC(=O)c1ccc(NC(=O)[C@@H]2CC[C@@H]3CC(c4c(-n5cnnn5)ccc(Cl)c4F)=CC(=O)N32)cc1F` (single isomer, unassigned) [ID No. 5, (3S,8aR*)-7-(3-chloro-2-fluoro-6-(1H-tetrazol-1-yl)phenyl)-N-(3-fluoro-4-((2-methoxyethyl)carbamoyl)phenyl)-5-oxo-1,2,3,5,8,8a-hexahydroindolizine-3-carboxamide], for which the IC50 on Factor XIa was 15.5 nM; against human plasma kallikrein, 128 nM.

Take `O=C(Nc1ccc2nn(C(F)F)cc2c1)[C@@H]1CCC2CC(c3c(-n4cnnn4)ccc(Cl)c3F)=CC(=O)N21` (single isomer, unassigned) [ID No. 22, (3S,8aS*)-7-(3-Chloro-2-fluoro-6-(1H-tetrazol-1-yl)phenyl)-N-(2-(difluoromethyl)-2H-indazol-5-yl)-5-oxo-1,2,3,5,8,8a-hexahydroindolizine-3-carboxamide]: the values for the IC50 at Factor XIa and against human plasma kallikrein were 4.2 nM and 19.3 nM, respectively.

As for `O=C(Nc1ccc2nn(C(F)F)cc2c1)[C@@H]1CC[C@@H]2CC(c3c(-n4cnnn4)ccc(Cl)c3F)=CC(=O)N21` (single isomer, unassigned) [ID No. 23], the IC50 on Factor XIa came to 8.3 nM; at human plasma kallikrein, 31.1 nM.

In the case of `O=C(Nc1ccc(-c2nc(=O)o[nH]2)c(F)c1)[C@@H]1CCC2CC(c3c(-n4cnnn4)ccc(Cl)c3F)=CC(=O)N21` (single isomer, unassigned) [ID No. 35, (3S,8aR*)-7-[3-Chloro-2-fluoro-6-(tetrazol-1-yl)phenyl]-N-[3-fluoro-4-(5-oxo-2H-1,2,4-oxadiazol-3-yl)phenyl]-5-oxo-2,3,8,8a-tetrahydro-1H-indolizine-3-carboxamide], the IC50 on Factor XIa was 0.4 nM; against human plasma kallikrein, 6.4 nM.
